The text below walks through data of patent US20260265229A1, “Small Molecule Modulators of IL-17A, Methods of Making and Methods of Using Thereof” (Ascletis Pharma (China) Co., Limited, priority 2023, published 2026).

The experiment deals with T1, IL-17A (Homo sapiens, UniProt Q16552).
T1 construct: purchased R&D 7955-IL
T1 sequence (Q16552 24-155): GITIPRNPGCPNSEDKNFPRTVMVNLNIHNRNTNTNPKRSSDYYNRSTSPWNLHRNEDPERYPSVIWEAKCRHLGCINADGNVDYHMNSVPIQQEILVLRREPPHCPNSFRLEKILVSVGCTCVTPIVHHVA
Kind of experiment: HEK-Blue IL-17 cell assay (SEAP reporter, rhIL-17A/A stimulation). The format is cell-based. As to conditions: HEK-Blue IL-17 cells with rhIL-17A/A, 20 hours at 37° C., absorbance at 405 nm. As for the experimental part:
1. The test Compounds were 3-fold serial diluted from 10 mM for 10 doses in DMSO.
2. Prepare Reference Compounds (IL-17A-Inhibitor-1) were 3-fold serial diluted from 1 mM for 10 doses in DMSO.
3. Prepare 1000× Positive control (1 mM IL-17A-Inhibitor-1) and 1000× vehicle control (100% DMSO).
• a) Cells were cultured as the HEK-Blue™ IL-17 technical data sheet recommended. HEK-Blue IL-17 cells were assayed in the exponential growth phase. • b) Aspirate growth medium and rinse cells twice with PBS to remove phenol red. • c) Resuspend cells in test medium to a proper concentration. • d) Only cells with viability greater than 90% were used for assays. • e) Transfer 25nl of compound dilutions into 384-well assay plates using Echo655; • f) Seed 25 ul of HEK-Blue IL-17 cells at 8,000 cells/well into 384-well plate with rhIL-17A/A. • g) Cells were incubated for 20 hours at 37° C. under 5% CO2 atmosphere. • h) Transfer 2 ul of cells supernatant into per well of 384-well assay plates. • i) Add 20 ul of PNPP substrate. • j) Measure the Absorbance at 405 nm on Envision 2105 plate reader.
RLU signal (LUMempd) is calculated for each well. % Inhibition is calculated as follow: […]
Signalave_pc: The average signal for the positive controls across the plate.
Signalave_vc: The average signal for negative controls across the plate.
Calculate IC50 and Plot effect-dose curve of cmpds:
Calculate IC50 by fitting % Inhibition values and log of compound concentrations to nonlinear regression (dose response−variable slope) with Graphpad 8.0.
For `CC(=O)N1CC(c2ccc(NC(=O)[C@@H](NC(=O)c3ccnn3C(C)C)C3CCCCCC3)cc2)[C@H](C(=O)N2CC(F)(F)C(F)(F)C2)C1` (stereo partly drawn) [Cis-62], half-maximal inhibition (IC50) was put at 39.6 nM.
In the case of `COC(=O)N1C[C@H](c2ccc(NC(=O)[C@@H](NC(=O)c3ccnn3C(C)C)C3CCCCCC3)cc2)[C@H](C(=O)N2CC(F)(F)C2)C1` [Example 1, methyl (3S,4S)-3-(4-((S)-2-cycloheptyl-2-(1-isopropyl-1H-pyrazole-5-carboxamido)acetamido)phenyl)-4-(3,3-difluoroazetidine-1-carbonyl)pyrrolidine-1-carboxylate], the IC50 – broadly, the concentration that gives 50% inhibition – came to 15.3 nM.
In turn, `COC(=O)N1C[C@H](C(=O)N2CC(F)(F)C2)[C@@H](c2ccc(NC(=O)[C@@H](NC(=O)c3ccnn3C(C)C)C3CCCCCC3)cc2)C1` [Example 2] displayed a half-maximal inhibitory concentration (IC50) of 110 nM.
In turn, `CC(=O)N1C[C@H](c2ccc(NC(=O)[C@@H](NC(=O)c3ccnn3C(C)C)C3CCCCCC3)cc2)[C@H](C(=O)N2CC(F)(F)C2)C1` [Example 6] had a concentration for half-maximal inhibition (IC50) of 69 nM.
As for `COC(=O)N1CC(C(=O)N2CC(F)(F)C2)=C(c2ccc3cnc([C@@H](NC(=O)c4ccnn4C(C)C)C4CCC(F)(F)CC4)nc3c2)C1` [Example 46], the IC50 came to 6040 nM. This IC50 lies about 88-fold higher than the previous one.
The figure for `CC(=O)N1C[C@H](C(=O)N2CCN(C)CC2)[C@@H](c2ccc(NC(=O)[C@@H](NC(=O)c3ccnn3C(C)C)C3CCCCCC3)cc2)C1` [Example 49] is 1860 nM.
Regarding `CC(C)n1nccc1C(=O)N[C@H](c1nc2c(F)cc(C3=C(C(=O)N4CC(F)(F)C4)CN(C(=O)OCc4ccccc4)C3)cc2[nH]1)C1CCCCCC1` [Example 50], the IC50 came out at 420 nM.
`CC(=O)N1CC(C(=O)N2CC(F)(F)C2)C(c2cc(F)c3nc([C@@H](NC(=O)c4ccnn4C(C)C)C4CCCCCC4)[nH]c3c2)C1` (stereo partly drawn) [Example 51]: the 50% inhibitory concentration (IC50) was 118 nM.
Next, `CC(=O)N1C[C@H](C(=O)NCC(C)(F)F)[C@@H](c2ccc(NC(=O)[C@@H](NC(=O)c3ccnn3C(C)C)C3CCCCCC3)cc2)C1` [Example 52]: 103 nM; `COC(=O)N1CC(C(=O)N2CC(F)(F)C2)C(c2cc(F)c3nc([C@@H](NC(=O)c4ccnn4C(C)C)C4CCCCCC4)[nH]c3c2)C1` (stereo partly drawn) [Example 53]: 532 nM; `CC(=O)N1C[C@H](C(=O)N2CC(F)(F)C(F)(F)C2)[C@@H](c2ccc(NC(=O)[C@@H](NC(=O)c3ccnn3C(C)C)C3CCCCCC3)cc2)C1` [Example 54]: 28.6 nM.
In turn, `COC(=O)N1C[C@H](C(=O)N2CC(F)(F)C2)[C@@H](c2ccc(NC(=O)[C@@H](NC(=O)c3ccnn3C(C)C)C3CCC(F)(F)CC3)cc2)C1` [Example 55] returned a half-maximal inhibitory concentration (IC50) of 944 nM. This IC50 is about 33-fold higher than that of the compound before.
Regarding `COC(=O)N1C[C@H](C(=O)N2CC(F)(F)C2)[C@@H](c2ccc(NC(=O)[C@@H](NC(=O)c3nonc3C)C3CCC(F)(F)CC3)cc2)C1` [Example 56], the 50% inhibitory concentration (IC50) was 1450 nM.
In the case of `COC(=O)N1C[C@H](C(=O)N2CC(F)(F)C(F)(F)C2)[C@@H](c2ccc(NC(=O)[C@@H](NC(=O)c3ccnn3C(C)C)C3CCCCCC3)cc2)C1` [Example 57], inhibition was half-maximal at 46.8 nM (IC50).
With `CC(C)n1nccc1C(=O)N[C@H](C(=O)Nc1ccc([C@H]2CN(C(=O)N(C)C)C[C@@H]2C(=O)N2CC(F)(F)C(F)(F)C2)cc1)C1CCCCCC1` [Example 58], it took 39.3 nM to reach half-maximal inhibition (IC50).
`CC(C)n1nccc1C(=O)N[C@H](C(=O)Nc1ccc([C@H]2CN(C(=O)CCC(F)(F)F)C[C@@H]2C(=O)N2CC(F)(F)C(F)(F)C2)cc1)C1CCCCCC1` [Example 59] displayed an IC50 of 143 nM.
`CC(=O)N1C[C@H](C(=O)N2CC(F)(F)C(F)(F)C2)[C@@H](c2ccc(NC(=O)[C@@H](NC(=O)c3ccnn3C(C)C)C3CCC(F)(F)CC3)cc2)C1` [Example 60] yielded a 50% inhibitory concentration (IC50) of 315 nM.
As to `COC(=O)N1C[C@H](C(=O)N2CC(F)(F)C(F)(F)C2)[C@@H](c2ccc(NC(=O)[C@@H](NC(=O)c3ccnn3C(C)C)C3CCCCCC3)cc2F)C1` [Example 61], half-maximal inhibition (IC50) required 66.8 nM.
Next, `CC(=O)N1CC(c2ccc(NC(=O)[C@@H](NC(=O)c3ccnn3C(C)C)C(C3CC3)C3CC3)cc2)[C@@H](C(=O)N2CC(F)(F)C(F)(F)C2)C1` (stereo partly drawn) [Example 63]: 132 nM; `CC(=O)N1C[C@H](c2ccc(NC(=O)[C@@H](NC(=O)c3ccnn3C(C)C)C3CCCCCC3)cc2)[C@H](C(=O)N2CC(F)(F)C(F)(F)C2)C1` [Example 64]: 11.5 nM.
Take `CC(=O)N1C[C@H](C(=O)N2CC(F)(F)C(F)(F)C2)[C@H](c2ccc(NC(=O)[C@@H](NC(=O)c3ccnn3C(C)C)C3CCCCCC3)cc2)C1` [Example 65]: the half-maximal inhibitory concentration (IC50) was found to be 57.2 nM.
Compound `CC(=O)N1C[C@H](c2ccc(NC(=O)[C@@H](NC(=O)c3ccnn3C(C)C)C3CCCCCC3)cc2)[C@H](C(=O)NCC(F)(F)F)C1` [Example 66] had a 50% inhibitory concentration (IC50) of 44.4 nM. The IC50 values of the last two compounds are within 1.5-fold of each other.
Consider `CC(=O)N1C[C@H](c2ccc(NC(=O)[C@@H](NC(=O)c3ccnn3C(C)C)C3CCCCCC3)c(F)c2)[C@H](C(=O)N2CC(F)(F)C(F)(F)C2)C1` [Example 67], for which the IC50 stood at 31.4 nM. This IC50 and that of the compound before are within 1.5-fold of each other.
`CC(=O)N1C[C@H](C(=O)N(C)CC(F)(F)F)[C@@H](c2ccc(NC(=O)[C@@H](NC(=O)c3ccnn3C(C)C)C3CCCCCC3)cc2)C1` [Example 68]: the IC50 amounted to 48.6 nM.
